The values below come from patent US10487083B2, “Small molecule inhibitors of the JAK family of kinases” (Janssen Pharmaceutica NV, priority 2016, dated 2019).

Data set [1] in a line: MDCK-MDR1 permeability assay. The following applies: MDCK-MDR1, pH 7.4; @ 5 μM, with P-gp inhibitor elacridar (2 μM); read-out: MDCK-MDR1 P^eapp(A-B). The class given is in vitro ADME. How it is done: Permeability measurements were conducted according to the Cyprotex protocol using the MDCK-MDR1 cell line obtained from the NIH (Rockville, Md., USA). […] The cells in this assay form a cohesive sheet of a single cell layer filing the surface area of the culture dish, also known as a confluent monolayer, and on day four the test compound was added to the apical side of the membrane and the transport of the compound across the monolayer was monitored over a time period of 60 min.
Test compounds were dissolved in DMSO at a concentration of 10 mM. The dosing solutions were prepared by diluting test compound with assay buffer (Hanks Balanced Salt Solution), pH 7.4, at a final concentration of 5 μM. For assessment of apical to basolateral (“A-B”) permeability, buffer was removed from the apical compartment and replaced with test compound dosing solution with or without the permeability glycoprotein (“PgP”, “P-gP”, “Pgp” or “P-gp”) inhibitor elacridar (2 μM). For assessment of basolateral to apical (“B-A”) permeability, buffer was removed from the companion plate and replaced with test compound dosing solution. […] The permeability coefficient (Papp) for each compound was calculated from the following equation: Papp=(dQ/dt)/(C0×S), where dQ/dt is the rate of permeation of the drug across the cells, C0 is the donor compartment concentration at time zero, and S is the area of the cell monolayer. […]

Data set [2] can be described thus: Physical stability of crystalline embodiments of compound Ex. 1 (HT-XRPD/HR-XRPD after exposure). The class given is physicochemical. The following applies: for physical stability after exposure to AAC: AAC 40° C./70% RH, two days; for physical stability in climate chamber: four days, HR-XRPD. How it is done:
Long term slurry experiments were performed by suspending compound embodiment 1s in twenty neat solvents and stirred at room temperature for two weeks and at 50° C. for one week. Upon completion of the equilibration time, the residual solids were separated from the mother liquors. The solids were dried under ambient conditions and dried under vacuum (5 mBar) before being analyzed by HT-XRPD. Subsequently, the solids were exposed to accelerated aging conditions (40° C./70% relative humidity) for two days and again analyzed by HT-XRPD.
Embodiment 1s converted to hydrated embodiment 10 when it was exposed to 100% RH at 25° C. […] This behavior is attributable to an unequally strong binding of all the hydration/solvation molecules. In this case, embodiment 10 would have a less strongly bound second water molecule that would be lost under ambient conditions. More precisely, the physical stability of embodiment 1s was investigated in climate chambers by exposing a 20 mg sample of such embodiment to 40° C. and 70% relative humidity for four days, and another 20 mg sample of the same embodiment was exposed also for four days to 25° C. and 100% relative humidity. After four days, the various solid samples were analyzed by HR-XRPD, the crystal cell parameters were determined and the diffractograms were indexed. From bottom to top, the first diffractogram in FIG. 6 corresponds to embodiment 1s as starting material, and the second corresponds to the same form after a 4-day exposure to 40° C. and 70% relative humidity, noted as “1s 70 RH” in the same figure. […] Indexing for such form was not possible due to the small amount in which it was present. The third diffractogram corresponds to embodiment 1s after a 4-day exposure to 25° C. and 100% relative humidity, noted as “10” in the same figure. […] Upon dehydration, both embodiments is and 10 re-crystallized to the anhydrous form with a melting point of 148° C.

Data set [3] in a line: In vivo intracolonic (i.c.) dosing, plasma and colon concentrations (Protocol 3). Details: species or system C57BL/6 mice; key to Plasma Concentration After i.c. Dosing, Mean: ^: Mean was not calculated as the values for all three mice were below the lower limit of quantitation. The following applies: for Plasma Concentration After i.c. Dosing, Mean: 5 mg/kg intracolonic, female C57BL/6 mice; for systemic exposure after i.c. dosing: mice. From the text:
Plasma and colon concentration results were obtained by following Protocol 1 using venipuncture of dorsal metatarsal vein bleed for Compounds (B), (C), and Examples 6 and 11. Plasma and colon concentration results were obtained by following Protocol 2 using retro-orbital bleed for Compounds (A), and Examples 1, and 3-5 and Protocol 2 using venipuncture of the dorsal metatarsal vein for Examples 2, 7-10, and 12. Plasma and colon concentration results were obtained by following Protocol 3 for Examples 1, 3 and 4. These protocols are described below under the heading In vivo Studies.
Intracolonic (IC) dose group: Following anesthesia with isoflurane by inhalation, three non-fasted female C57BL/6 mice were administered the compound intracolonically through a small incision in the abdominal wall using a syringe and needle at a dose of 5 mg/kg as a solution in 20% HPβCD at a dose volume of 1 mL/kg. Blood samples were collected at 0.5, 2, and 4 h post dose via retro-orbital bleed. Blood samples were collected into tubes containing anticoagulant (Heparin-Na) and placed on wet ice. The plasma fraction was separated by centrifugation and frozen at −20° C. for up to 4 h and −80° C. after 4 h unless analyzed shortly after sample collection. Colon samples were collected at 4 h post dose. From 2 cm below the cecum, a 4-cm sample of the colon was dissected, cut open on the longitudinal axis, and the solid contents removed by flushing with 2 mL of saline. The colon was further washed by putting it in 5 mL of saline and shaken for 5 seconds. The colon sample was then patted dry, weighed, and homogenized as 1 part tissue (g) to 4 parts HPLC grade water (mL). Concentrations of the compound in plasma and colon homogenate were determined using a qualified liquid chromatography-triple quadrupole mass spectrometry (LC-MS/MS) method. This protocol was used to evaluate IC dosing of the following test compounds: Examples 1, 3, and 4.

A short description of data set [4]: In vivo oral (p.o.) dosing, plasma and colon concentrations (Protocols 1 and 2). The following applies: 25 mg/kg p.o., female C57BL/6 mice. How it is done:
These protocols are described below under the heading In vivo Studies.
Three non-fasted female C57BL/6 mice were orally administered test compound at a dose of 25 mg/kg p.o. as a solution in 20% hydroxypropyl-beta-cyclodextrin (HPβCD) at a dose volume of 5 mL/kg. Blood samples were collected at 0.5, 2, and 4 h post dose via retro-orbital bleed or venipuncture of the dorsal metatarsal vein. Blood samples were collected into tubes containing anticoagulant (Heparin-Na) and placed on wet ice. The plasma fraction was separated by centrifugation and frozen at −20° C. for up to 4 h and −80° C. after 4 h unless analyzed shortly after sample collection. Colon samples were collected at 4 h post dose. […] Concentrations of the compound in plasma and colon homogenate were determined using a qualified liquid chromatography-triple quadrupole mass spectrometry (LC-MS/MS) method.
Three non-fasted female C57BL/6 mice were orally administered test compound at a dose of 25 mg/kg p.o. as a solution in 20% HPβCD at a dose volume of 5 mL/kg. […] The plasma fraction was separated by centrifugation and frozen at −20° C. for up to 4 h and −80° C. after 4 h unless analyzed shortly after sample collection. […] Concentrations of the compound in plasma and colon homogenate were determined using a qualified liquid chromatography-triple quadrupole mass spectrometry (LC-MS/MS) method.

Turning to `C[C@@H](O)c1nc2cnc3[nH]ccc3c2n1[C@H]1CC[C@H](CC#N)CC1` [C], in data set [1], the Papp A→B was found to be 2.5 ×10⁻⁶ cm/s.
In the case of `CC(C)(O)CNC(=O)Cc1nc2cnc3[nH]ccc3c2n1[C@H]1CC[C@H](CC#N)CC1` [Embodiment 4], the “physical stability under ambient conditions” value in data set [2] is given as “did not appear to be physically stable”.
For the compound `CC(C)(O)CNC(=O)Cc1nc2cnc3[nH]ccc3c2n1[C@H]1CC[C@H](CC#N)CC1` [Embodiment 5], in data set [2], the “physical stability after exposure to AAC” value is given as “physically unstable”.
On the same count and under the same terms, as for `CC(C)(O)CNC(=O)Cc1nc2cnc3[nH]ccc3c2n1[C@H]1CC[C@H](CC#N)CC1` [Embodiment 6], the entry is “stable solid form”; as for `CC(C)(O)CNC(=O)Cc1nc2cnc3[nH]ccc3c2n1[C@H]1CC[C@H](CC#N)CC1` [Embodiment 7], “physically stable”.
For `CC(C)(O)CNC(=O)Cc1nc2cnc3[nH]ccc3c2n1[C@H]1CC[C@H](CC#N)CC1` [Ex. 1, 2-(1-((1r,4r)-4-(Cyanomethyl)cyclohexyl)-1,6-dihydroimidazo[4,5-d]pyrrolo[2,3-b]pyridin-2-yl)-N-(2-hydroxy-2-methylpropyl)acetamide], the “Plasma Concentration After i.c. Dosing, Mean” value in data set [3] (Time = 2 h) and in data set [3] (Time = 4 h) was “^” throughout. For the same compound, the “systemic exposure after i.c. dosing” value in data set [3] is on record as “low systemic exposures”.
As to `N#CC[C@H]1CC[C@H](n2c(CC(=O)NCC3CC3)nc3cnc4[nH]ccc4c32)CC1` [Ex. 3, 2-(1-((1r,4r)-4-(Cyanomethyl)cyclohexyl)-1,6-dihydroimidazo[4,5-d]pyrrolo[2,3-b]pyridin-2-yl)-N-(cyclopropylmethyl)acetamide], the “Plasma Concentration After i.c. Dosing, Mean” value in data set [3] (Time = 2 h) and in data set [3] (Time = 4 h) was “^” in each case. Besides, the “systemic exposure after i.c. dosing” value in data set [3] is “low systemic exposures”.
Turning to `N#CCCNC(=O)Cc1nc2cnc3[nH]ccc3c2n1[C@H]1CC[C@H](CC#N)CC1` [Ex. 4, N-(2-Cyanoethyl)-2-(1-((1r,4r)-4-(cyanomethyl)cyclohexyl)-1,6-dihydroimidazo[4,5-d]pyrrolo[2,3-b]pyridin-2-yl)acetamide], in data set [3] (Time = 4 h), the “Plasma Concentration After i.c. Dosing, Mean” value is “^”. The “systemic exposure after i.c. dosing” value in data set [3] was “low systemic exposures”.
Consider `N#CC[C@H]1CC[C@H](n2c(CC(=O)Nc3cc[nH]n3)nc3cnc4[nH]ccc4c32)CC1` [Ex. 11, 2-(1-((1r,4r)-4-(Cyanomethyl)cyclohexyl)-1,6-dihydroimidazo[4,5-d]pyrrolo[2,3-b]pyridin-2-yl)-N-(1H-pyrazol-3-yl)acetamide], for which the “Plasma Concentration After p.o. Dosing, Mean” value in data set [4] (Time = 2 h) and in data set [4] (Time = 4 h) was “^” each time.
Take `CC(C)(O)CNC(=O)Cc1nc2cnc3[nH]ccc3c2n1[C@H]1CC[C@H](CC#N)CC1` [embodiment 1s]: the “physical stability in climate chamber” value in data set [2] (25° C. and 100% relative humidity) was “conversion of embodiment 1s into embodiment 10”; in data set [2] (40° C. and 70% relative humidity), “initial embodiment 1s had been recovered”.
In the case of `CC(C)(O)CNC(=O)Cc1nc2cnc3[nH]ccc3c2n1[C@H]1CC[C@H](CC#N)CC1` [embodiment 2], the “physical stability after exposure to AAC” value in data set [2] is on record as “converted to embodiment 3e”.
As to `CC(C)(O)CNC(=O)Cc1nc2cnc3[nH]ccc3c2n1[C@H]1CC[C@H](CC#N)CC1` [embodiment 10], the “physical stability under ambient conditions” value in data set [2] was “physically not stable”.
